This passage reports IC50 and Ki results from patent US9540323B2 (BRISTOL-MYERS SQUIBB COMPANY, priority 2012, dated 2017).

SMILES strings stand for the structures.

Experiment [1] concerns human platelet rich plasma (PRP). The experiment can be described thus: ADP induced platelet aggregation assay. The conditions noted are these: Homo sapiens, Platelet, 5 min, read-out: PA IC50 (μM) @ 10 μM ADP, human PRP, 10 μM ADP, AUC at 5 minute.
Experiment [2] addresses cloned human P2Y1 receptors (Homo sapiens (Human), UniProt P47900). The experiment can be described thus: Binding Assay B - Scintillation Proximity Assay (SPA) for P2Y1 binding, [33P] 2MeS-ADP. The note with it: SPA, 0.3 nM [33P] 2MeS-ADP, Cheng-Prusoff; read-out: P2Y1 Ki (nM) using binding assay B. Here is the method: Binding Assay B—Scintillation Proximity Assay (SPA) for P2Y1 Binding
A SPA membrane binding assay was used to identify inhibitors of [^33P] […] Reactions were allowed to proceed to completion at room temperature for 1 hour followed by centrifugation of the plate for 5 min. About 40 μL of the aqueous solution was aspirated. Plates were sealed and the [^33P]
On the technique in general: SPA uses beads or plates that emit light when radiolabelled molecules are held near them.

cloned human P2Y1 receptors, sequence (P47900 whole entry): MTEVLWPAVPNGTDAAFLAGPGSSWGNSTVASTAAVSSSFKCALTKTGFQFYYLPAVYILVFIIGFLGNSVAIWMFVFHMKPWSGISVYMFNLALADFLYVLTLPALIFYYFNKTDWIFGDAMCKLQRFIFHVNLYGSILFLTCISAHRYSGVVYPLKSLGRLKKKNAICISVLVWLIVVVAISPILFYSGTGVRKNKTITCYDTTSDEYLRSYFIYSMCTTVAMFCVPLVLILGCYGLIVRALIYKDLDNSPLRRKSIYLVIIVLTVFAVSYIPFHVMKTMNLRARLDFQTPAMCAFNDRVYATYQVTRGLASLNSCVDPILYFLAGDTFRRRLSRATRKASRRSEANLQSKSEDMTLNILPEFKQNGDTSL

On to `CC(C)(C)CN1CCCC1c1ccc(NC(=O)Nc2ccccc2N2CC(C)(C)c3c(-c4nc5ccc(Cl)cc5o4)ccc(O)c32)cc1` (centres unmarked) [Example 109, 1-(2-(4-(6-Chlorobenzo[d]oxazol-2-yl)-7-hydroxy-3,3-dimethylindolin-1-yl)phenyl)-3-(4-(1-neopentylpyrrolidin-2-yl)phenyl)urea], for which the IC50 – broadly, the concentration that gives 50% inhibition – in experiment [1] was 0.13 µM. Also, the inhibition constant (Ki) – broadly, the equilibrium dissociation constant of an inhibitor or competing ligand from its target – in experiment [2] amounted to 22 nM.
For `CC1(C)CN(c2ccccc2NC(=O)Nc2csc(Cl)n2)c2c(O)cc(F)c(-c3ccc(Cl)cc3)c21` [Example 215, 1-(2-(4-(4-Chlorophenyl)-5-fluoro-7-hydroxy-3,3-dimethylindolin-1-yl)phenyl)-3-(2-chlorothiazol-4-yl)urea], in that order: 0.14 µM and 15 nM.
For `CC1(C)CN(c2ccccc2NC(=O)Nc2ccc(OC(F)(F)F)cc2)c2c(O)cc(F)c(-c3ccc(Cl)c(F)c3)c21` [Example 234, 1-(2-(4-(4-Chloro-3-fluorophenyl)-5-fluoro-7-hydroxy-3,3-dimethylindolin-1-yl)phenyl)-3-(4-(trifluoromethoxy)phenyl)urea], in that order: 0.29 µM and 40.8 nM.
For `CC1(C)CN(c2ccccc2NC(=O)Nc2csc(Cl)n2)c2c(O)cc(F)c(-c3nc4ccc(F)cc4s3)c21` [Example 150, 1-(2-Chlorothiazol-4-yl)-3-(2-(5-fluoro-4-(6-fluorobenzo[d]thiazol-2-yl)-7-hydroxy-3,3-dimethylindolin-1-yl)phenyl)urea], in that order: 0.41 µM and 32.7 nM.
For the molecule `CC(C)(C)c1nc(-c2c(F)cc(O)c3c2C(C)(C)CN3c2ccccc2NC(=O)Nc2nc3ccc(F)cc3s2)co1` [Example 254, 1-(2-(4-(2-tert-Butyloxazol-4-yl)-5-fluoro-7-hydroxy-3,3-dimethylindolin-1-yl)phenyl)-3-(6-fluorobenzo[d]thiazol-2-yl)urea], the half-maximal inhibitory concentration (IC50) in experiment [1] turned out to be 0.87 µM. Also, in experiment [2], the Ki stood at 13.7 nM.
The matching figures for `CC1(C)CN(c2ccccc2NC(=O)Nc2ccc(OC(F)(F)F)cc2)c2c(O)cc(F)c(-c3ccc(F)cn3)c21` [Example 159, 1-(2-(5-Fluoro-4-(5-fluoropyridin-2-yl)-7-hydroxy-3,3-dimethylindolin-1-yl)phenyl)-3-(4-(trifluoromethoxy)phenyl)urea]: 0.3 µM and 7.4 nM.
The matching figures for `CC(C)n1nc(-c2c(F)cc(O)c3c2C(C)(C)CN3c2ccccc2NC(=O)Nc2nc3ccc(Cl)cc3s2)cc1C(F)(F)F` [Example 266, 1-(6-Chlorobenzo[d]thiazol-2-yl)-3-(2-(5-fluoro-7-hydroxy-4-(1-isopropyl-5-(trifluoromethyl)-1H-pyrazol-3-yl)-3,3-dimethylindolin-1-yl)phenyl)urea]: 0.13 µM and 41.1 nM.
For `CC1(C)CN(c2ccccc2NC(=O)Nc2ccc(OC(F)(F)F)cc2)c2c(O)ccc(-c3ccccc3F)c21` [Example 207, 1-(2-(4-(2-Fluorophenyl)-7-hydroxy-3,3-dimethylindolin-1-yl)phenyl)-3-(4-(trifluoromethoxy)phenyl)urea], in that order: 0.08 µM and 8.7 nM.
Take `CC(C)CN1CCCC1c1ccc(NC(=O)Nc2ccccc2N2CC(C)(C)c3cccc(O)c32)cc1` (centres unmarked) [Example 11, 1-(2-(7-Hydroxy-3,3-dimethylindolin-1-yl)phenyl)-3-(4-(1-isobutylpyrrolidin-2-yl)phenyl)urea]: the IC50 in experiment [1] was 1.08 µM. Moreover, the Ki in experiment [2] is 36.8 nM.
For `Cc1ccc2nc(-c3ccc(O)c4c3C(C)(C)CN4c3ccccc3NC(=O)Nc3ccc(OC(F)(F)F)cc3)oc2c1` [Example 95, 1-(2-(7-Hydroxy-3,3-dimethyl-4-(6-methylbenzo[d]oxazol-2-yl)indolin-1-yl)phenyl)-3-(4-(trifluoromethoxy)phenyl)-urea], in that order: 0.46 µM and 33.3 nM.
